Measured values from patent US9771381B2, “Derivatives of 1-amino-2-cyclobutylethylboronic acid” (Millennium Pharmaceuticals, Inc., priority 2008, dated 2017).

Each molecule was assayed against T1, human 20S proteasome (Homo sapiens, UniProt P28074) (assay: 20S Proteasome Assay). Settings: Ac-WLA-AMC substrate 15 μM, human PA28 activator 12 nM, human 20S proteasome 0.25 nM, 37° C., pH7.4.
T1 construct: purchased Boston Biochem
Format: biochemical

IC50 | SMILES
< 50 nM | CC(=O)N[C@@H](CCc1ccccc1)C(=O)N[C@@H](Cc1ccccc1)C(=O)N[C@@H](CC1CCC1)B(O)O [Compound 22, {(1R)-1-[((2S)-2-{[(2S)-2-(acetylamino)-4-phenylbutanoyl]amino}-3-phenylpropanoyl)amino]-2-cyclobutylethyl}boronic acid]
< 50 nM | O=C(N[C@@H](Cc1ccccc1)C(=O)N[C@@H](CC1CCC1)B(O)O)c1cccnc1Nc1cccc(C(F)(F)F)c1 [Compound 23, {(1R)-2-cyclobutyl-1-[((2S)-3-phenyl-2-{[(2-{[3-(trifluoromethyl)phenyl]amino}pyridin-3-yl)carbonyl]amino}propanoyl)amino]ethyl}boronic acid]
< 50 nM | CC1(C)[C@@H]2C[C@H]3OB([C@H](CC4CCC4)NC(=O)[C@H](Cc4ccccc4)NS(=O)(=O)c4ccc(Oc5ccccc5)nc4)O[C@@]3(C)[C@H]1C2 [Compound 24, (2S)-N-{(1R)-2-cyclobutyl-1-[(3aS,4S,6S,7aR)-3a,5,5-trimethylhexahydro-4,6-methano-1,3,2-benzodioxaborol-2-yl]ethyl}-2-{[(6-phenoxypyridin-3-yl)sulfonyl]amino}-3-phenylpropanamide]
< 50 nM | O=C(c1cccc(S(=O)(=O)N[C@@H](Cc2ccccc2)C(=O)N[C@@H](CC2CCC2)B(O)O)c1)c1ccccn1 [Compound 29, ((1R)-2-cyclobutyl-1-{[(2S)-3-phenyl-2-({[3-(pyridin-2-ylcarbonyl)phenyl]sulfonyl}amino)propanoyl]amino}eth-yl)boronic acid]
< 50 nM | Cn1ccc2c(S(=O)(=O)N[C@@H](Cc3ccccc3)C(=O)N[C@@H](CC3CCC3)B(O)O)cccc21 [Compound 30, {(1R)-2-cyclobutyl-1-[((2S)-2-{[(1-methyl-1H-indol-4-yl)sulfonyl]amino}-3-phenylpropanoyl)amino]ethyl}boronic acid]
< 50 nM | O=C(N[C@@H](CC1CCC1)B(O)O)[C@H](Cc1ccccc1)NS(=O)(=O)c1ccc(N2CCOCC2)nc1 [Compound 31, {(1R)-2-cyclobutyl-1-[((2S)-2-{[(6-morpholin-4-ylpyridin-3-yl)sulfonyl]amino}-3-phenylpropanoyl)amino]ethyl}boronic acid]
< 50 nM | O=C1COc2cc(S(=O)(=O)N[C@@H](Cc3ccccc3)C(=O)N[C@@H](CC3CCC3)B(O)O)c(Cl)cc2N1 [Compound 32, {(1R)-1-[((2S)-2-{[(6-chloro-3-oxo-3,4-dihydro-2H-1,4-benzoxazin-7-yl)sulfonyl]amino}-3-phenylpropanoyl)amino]-2-cyclobutylethyl}boronic acid]
< 50 nM | O=C(N[C@@H](CC1CCC1)B(O)O)[C@H](Cc1ccccc1)NS(=O)(=O)c1cccc(Oc2ccc(C(F)(F)F)cn2)c1 [Compound 34, {(1R)-2-cyclobutyl-1-[((2S)-3-phenyl-2-{[(3-{[5-(trifluoromethyl)pyridin-2-yl]oxy}phenyl)sulfonyl]amino}pro-panoyl)amino]ethyl}boronic acid]
< 50 nM | CN1CCOc2ccc(C(=O)N[C@@H](Cc3ccccc3)C(=O)N[C@@H](CC3CCC3)B(O)O)cc21 [Compound 37, {(1R)-2-cyclobutyl-1-[((2S)-2-{[(4-methyl-3,4-dihydro-2H-1,4-benzoxazin-6-yl)carbonyl]amino}-3-phenylpropanoyl)amino]ethyl}boronic acid]
< 50 nM | O=C(N[C@@H](CC1CCC1)B(O)O)[C@H](Cc1ccccc1)NS(=O)(=O)c1cc(F)ccc1F [Compound 38, {(1R)-2-cyclobutyl-1-[((2S)-2-{[(2,5-difluorophenyl)sulfonyl]amino}-3-phenylpropanoyl)amino]ethyl}boronic acid]

Second part, the molecule before the results:

SMILES | IC50
O=C(N[C@@H](Cc1ccccc1)C(=O)N[C@@H](CC1CCC1)B(O)O)c1ccc(O)c(CN2CCOCC2)c1 [Compound 3, {(1R)-2-cyclobutyl-1-[((2S)-2-{[4-hydroxy-3-(morpholin-4-ylmethyl)benzoyl]amino}-3-phenylpropanoyl)amino]ethyl}boronic acid] | < 50 nM
O=C(N[C@@H](CC1CCC1)B(O)O)[C@H](Cc1ccccc1)NC(=O)[C@H](CCc1ccccc1)NS(=O)(=O)Cc1ccccc1 [Compound 4, [(1R,4S,7S)-4-benzyl-1-(cyclobutylmethyl)-9,9-dioxido-3,6-dioxo-10-phenyl-7-(2-phenylethyl)-9-thia-2,5,8-triazadec-1-yl]boronic acid] | < 50 nM
CC1(C)[C@@H]2C[C@H]3OB([C@H](CC4CCC4)NC(=O)[C@H](Cc4ccccc4)NC(=O)c4cc(Cl)ccc4Cl)O[C@@]3(C)[C@H]1C2 [Compound 5, N-[(1S)-1-benzyl-2-({(1R)-2-cyclobutyl-1-[(3aS,4S,6S,7aR)-3a,5,5-trimethylhexahydro-4,6-methano-1,3,2-benzodioxaborol-2-yl]ethyl}amino)-2-oxoethyl]-2,5-dichlorobenzamide] | < 50 nM
O=C(N[C@@H](Cc1ccccc1)C(=O)N[C@@H](CC1CCC1)B(O)O)c1cccc(Oc2ccccc2)c1 [Compound 7, [(1R)-2-cyclobutyl-1-({(2S)-2-[(3-phenoxybenzoyl)amino]-3-phenylpropanoyl}amino)ethyl]boronic acid] | < 50 nM
CN1CCOc2cc(S(=O)(=O)N[C@@H](Cc3ccccc3)C(=O)N[C@@H](CC3CCC3)B3O[C@@H]4C[C@@H]5C[C@@H](C5(C)C)[C@]4(C)O3)ccc21 [Compound 8, (2S)-N-{(1R)-2-cyclobutyl-1-[(3aS,4S,6S,7aR)-3a,5,5-trimethylhexahydro-4,6-methano-1,3,2-benzodioxaborol-2-yl]ethyl}-2-{[(4-methyl-3,4-dihydro-2H-1,4-benzoxazin-7-yl)sulfonyl]amino}-3-phenylpropanamide] | < 50 nM
CC1(C)[C@@H]2C[C@H]3OB([C@H](CC4CCC4)NC(=O)[C@H](Cc4ccccc4)NC(=O)c4cccnc4Oc4ccccc4)O[C@@]3(C)[C@H]1C2 [Compound 9, N-[(1S)-1-benzyl-2-({(1R)-2-cyclobutyl-1-[(3aS,4S,6S,7aR)-3a,5,5-trimethylhexahydro-4,6-methano-1,3,2-benzodioxaborol-2-yl]ethyl}amino)-2-oxoethyl]-2-phenoxynicotinamide] | < 50 nM
CC1(C)[C@@H]2C[C@H]3OB([C@H](CC4CCC4)NC(=O)[C@H](Cc4ccccc4)NC(=O)c4ccc(O)c(CN5CCOCC5)c4)O[C@@]3(C)[C@H]1C2 [Compound 10, N-[(1S)-1-benzyl-2-({(1R)-2-cyclobutyl-1-[(3aS,4S,6S,7aR)-3a,5,5-trimethylhexahydro-4,6-methano-1,3,2-benzodioxaborol-2-yl]ethyl}amino)-2-oxoethyl]-4-hydroxy-3-(morpholin-4-ylmethyl)benzamide] | 50 to 150 nM
O=C(N[C@@H](CC1CCC1)B(O)O)[C@H](Cc1ccccc1)NS(=O)(=O)c1ccc(Oc2ccccc2)nc1 [Compound 11, {(1R)-2-cyclobutyl-1-[((2S)-2-{[(6-phenoxypyridin-3-yl)sulfonyl]amino}-3-phenylpropanoyl)amino]ethyl}boronic acid] | < 50 nM
CC1(C)[C@@H]2C[C@H]3OB([C@H](CC4CCC4)NC(=O)[C@H](Cc4ccccc4)NS(=O)(=O)c4ccc5ccccc5c4)O[C@@]3(C)[C@H]1C2 [Compound 12, (2S)-N-{(1R)-2-cyclobutyl-1-[(3aS,4S,6S,7aR)-3a,5,5-trimethylhexahydro-4,6-methano-1,3,2-benzodioxaborol-2-yl]ethyl}-2-[(2-naphthylsulfonyl)amino]-3-phenylpropanamide] | < 50 nM
CC1(C)[C@@H]2C[C@H]3OB([C@H](CC4CCC4)NC(=O)[C@H](Cc4ccccc4)NC(=O)c4cccc(Oc5ccccc5)c4)O[C@@]3(C)[C@H]1C2 [Compound 13] | < 50 nM
CC1(C)[C@@H]2C[C@H]3OB([C@H](CC4CCC4)NC(=O)[C@H](Cc4ccccc4)NC(=O)c4ccc5[nH]c(-c6ccccc6)nc5c4)O[C@@]3(C)[C@H]1C2 [Compound 14] | < 50 nM
CC1(C)[C@@H]2C[C@H]3OB([C@H](CC4CCC4)NC(=O)[C@H](Cc4ccccc4)NS(=O)(=O)c4cccnc4)O[C@@]3(C)[C@H]1C2 [Compound 15, (2S)-N-{(1R)-2-cyclobutyl-1-[(3aS,4S,6S,7aR)-3a,5,5-trimethylhexahydro-4,6-methano-1,3,2-benzodioxaborol-2-yl]ethyl}-3-phenyl-2-[(pyridin-3-ylsulfonyl)amino]propanamide] | 50 to 150 nM
CC(=O)N[C@@H](CCc1ccccc1)C(=O)N[C@@H](Cc1ccccc1)C(=O)N[C@@H](CC1CCC1)B1O[C@@H]2C[C@@H]3C[C@@H](C3(C)C)[C@]2(C)O1 [Compound 16, (2S)-2-(acetylamino)-N-[(1S)-1-benzyl-2-({(1R)-2-cyclobutyl-1-[(3aS,4S,6S,7aR)-3a,5,5-trimethylhexahydro-4,6-methano-1,3,2-benzodioxaborol-2-yl]ethyl}amino)-2-oxoethyl]-4-phenylbutanamide] | < 50 nM
O=C(N[C@@H](Cc1ccccc1)C(=O)N[C@@H](CC1CCC1)B(O)O)c1ccc2nc(-c3ccccc3)[nH]c2c1 [Compound 18, {(1R)-2-cyclobutyl-1-[((2S)-3-phenyl-2-{[(2-phenyl-1H-benzimidazol-6-yl)carbonyl]amino}propanoyl)amino]ethyl}boronic acid] | < 50 nM
CC1(C)[C@@H]2C[C@H]3OB([C@H](CC4CCC4)NC(=O)[C@H](Cc4ccccc4)NC(=O)c4cccnc4Nc4cccc(C(F)(F)F)c4)O[C@@]3(C)[C@H]1C2 [Compound 19, N-[(1S)-1-benzyl-2-({(1R)-2-cyclobutyl-1-[(3aS,4S,6S,7aR)-3a,5,5-trimethylhexahydro-4,6-methano-1,3,2-benzodioxaborol-2-yl]ethyl}amino)-2-oxoethyl]-2-{[3-(trifluoromethyl)phenyl]amino}nicotinamide] | < 50 nM
CC1(C)[C@@H]2C[C@H]3OB([C@H](CC4CCC4)NC(=O)[C@H](Cc4ccccc4)NC(=O)[C@H](CCc4ccccc4)NS(=O)(=O)Cc4ccccc4)O[C@@]3(C)[C@H]1C2 [Compound 21, (2S)-N-[(1S)-1-benzyl-2-({(1R)-2-cyclobutyl-1-[(3aS,4S,6S,7aR)-3a,5,5-trimethylhexahydro-4,6-methano-1,3,2-benzodioxaborol-2-yl]ethyl}amino)-2-oxoethyl]-2-[(benzylsulfonyl)amino]-4-phenylbutanamide] | < 50 nM
